In PMC8262356, “SLC26A6-selective inhibitor identified in a small-molecule screen blocks fluid absorption in small intestine” (JCI Insight, 2021):

Target: T1, PAT1 (murine slc26a6) (Mus musculus, UniProt Q8CIW6)
T1 construct: host or cells: Fischer rat thyroid (FRT) cells, lentiviral transduction (pLVX-IRES-mCherry-slc26a6), clonal line FRT-YFP-slc26a6
T1 sequence (Q8CIW6 24-758 limits assumed): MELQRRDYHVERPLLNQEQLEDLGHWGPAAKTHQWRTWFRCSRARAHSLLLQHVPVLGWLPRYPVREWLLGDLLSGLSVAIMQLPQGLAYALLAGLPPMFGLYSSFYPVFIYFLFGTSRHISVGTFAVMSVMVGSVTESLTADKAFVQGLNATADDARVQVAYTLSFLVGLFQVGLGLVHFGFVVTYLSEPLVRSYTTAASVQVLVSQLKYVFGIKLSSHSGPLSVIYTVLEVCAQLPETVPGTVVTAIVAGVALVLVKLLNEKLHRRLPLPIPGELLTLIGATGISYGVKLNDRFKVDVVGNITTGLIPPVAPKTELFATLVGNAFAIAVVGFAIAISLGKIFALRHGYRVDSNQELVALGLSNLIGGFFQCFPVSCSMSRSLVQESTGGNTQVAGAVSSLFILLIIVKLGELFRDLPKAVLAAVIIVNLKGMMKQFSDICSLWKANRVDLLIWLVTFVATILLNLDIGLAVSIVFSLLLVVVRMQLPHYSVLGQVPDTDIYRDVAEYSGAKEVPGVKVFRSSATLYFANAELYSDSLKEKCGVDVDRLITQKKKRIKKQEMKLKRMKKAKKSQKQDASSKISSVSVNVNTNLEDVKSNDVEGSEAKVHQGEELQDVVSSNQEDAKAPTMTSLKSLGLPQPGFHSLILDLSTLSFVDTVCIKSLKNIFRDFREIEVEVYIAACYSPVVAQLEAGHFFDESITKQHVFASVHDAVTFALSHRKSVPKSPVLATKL
Test: PAT1-mediated Cl-/HCO3- exchange, cytoplasmic pH in BCECF-loaded FRT cells
Type: cell-based
Settings: read-out: IC50, inhibition of Cl-/HCO3- exchange
Description: As PAT1 functions as a general monovalent anion exchanger, PAT1inh-B01 inhibition was studied for different modes of anion exchange. […] To measure Cl^–/HCO3^– exchange, the time course of cytoplasmic pH was measured, using BCECF as a pH indicator, in response to a gluconate gradient to drive exchange of cytoplasmic Cl^– with extracellular HCO3^– producing cytoplasmic alkalinization (Figure 2B) as done before for DRA and pendrin ([7], [10], [11]).
YFP-based cellular assays of slc26a3, slc26a4, SLC26A9, and TMEM16A function were performed as described previously ([7]). Slc26a1 and slc26a2 assays were done in transfected HEK 293 cells (see Supplemental Methods for details). Niflumic acid was used as a positive control for SLC26A isoforms ([7]). For TMEM16A, the selective small-molecule inhibitor TMinh-23 was used as a positive control ([28]). The activities of ENaC, CFTR, and CaCC were determined using well-differentiated HBE cells as described previously ([13]). Cl^–/HCO3^– exchange was measured as described previously ([7], [10], [11]). Briefly, cell cytoplasm was labeled with the pH-sensitive fluorescent dye BCECF-AM (Invitrogen), and Cl^–/HCO3^– exchange was measured in response to addition of a gluconate-containing solution to drive exchange of cytoplasmic Cl^– for extracellular HCO3^–, producing cytoplasmic alkalinization.

For Cc1c(Br)c(C(F)(F)F)nn1CC(=O)N1CCc2nc3cc(-c4ccccc4)[nH]n3c(=O)c2C1 [PAT1inh-B01], the IC50 was 290 nM.
